Our source for the EC50 values is patent US8802661B2, “C-28 amides of modified C-3 betulinic acid derivatives as HIV maturation inhibitors” (priority 2010, dated 2014).

Structures can show the parent of a compound that is named as a salt. Bounds are passed on as bounds.

The subject of this test is recombinant NL4-3 virus (Renilla luciferase in nef, Gag P373S). Description: HIV Cell Culture Assay (luciferase reporter virus in MT-2 cells). The class given is cell-based. The settings on record: NL43, read-out: EC50 Group. In short, it runs like this:
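Cells grown in serum-supplemented RPMI were exposed to graded inhibitor concentrations during a 4-5 day infection. Antiviral effect was then derived from luminescence after adding a combined lysis and dual-luciferase substrate mixture to each well.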
(A reporter such as luciferase makes a cellular process visible.)
As to `C=C(C)[C@@H]1CC[C@]2(C(=O)NCC(=O)O)CC[C@]3(C)[C@H](CC[C@@H]4[C@@]5(C)CC=C(c6ccc(C(=O)O)cc6)C(C)(C)[C@@H]5CC[C@]43C)[C@@H]12` [Example 62, 4-((1R,3aS,5aR,5bR,7aR,11aS,11bR,13aR,13bR)-3a-(carboxymethylcarbamoyl)-5a,5b,8,8,11a-pentamethyl-1-(prop-1-en-2-yl)-2,3,3a,4,5,5a,5b,6,7,7a,8,11,11a,11b,12,13,13a,13b-octadecahydro-1H-cyclopenta[a]chrysen-9-yl)benzoic acid], the EC50 (as a rule, the concentration at which the effect is half-maximal) is over 100 nM.

For `C=C(C)[C@@H]1CC[C@]2(C(=O)NCCN3CCOCC3)CC[C@]3(C)[C@H](CC[C@@H]4[C@@]5(C)CC=C(c6ccc(C(=O)O)cc6)C(C)(C)[C@@H]5CC[C@]43C)[C@@H]12` [Example 12, 4-((1R,3aS,5aR,5bR,7aR,11aS,11bR,13aR,13bR)-5a,5b,8,8,11a-pentamethyl-3a-(2-morpholinoethylcarbamoyl)-1-(prop-1-en-2-yl)-2,3,3a,4,5,5a,5b,6,7,7a,8,11,11a,11b,12,13,13a,13b-octadecahydro-1H-cyclopenta[a]chrysen-9-yl)benzoic acid], the EC50 is under 100 nM.

In the case of `C=C(C)[C@@H]1CC[C@]2(C(=O)N(C)CCN(C)C)CC[C@]3(C)[C@H](CC[C@@H]4[C@@]5(C)CC=C(c6ccc(C(=O)O)cc6)C(C)(C)[C@@H]5CC[C@]43C)[C@@H]12` [Example 31, 4-((1R,3aS,5aR,5bR,7aR,11aS,11bR,13aR,13bR)-3a-((2-(dimethylamino)ethyl)(methyl)carbamoyl)-5a,5b,8,8,11a-pentamethyl-1-(prop-1-en-2-yl)-2,3,3a,4,5,5a,5b,6,7,7a,8,11,11a,11b,12,13,13a,13b-octadecahydro-1H-cyclopenta[a]chrysen-9-yl)benzoic acid], the EC50 is under 100 nM. Next, `C[C@H]1[C@H](C)CC[C@]2(C(=O)NCCCN3CCS(=O)(=O)CC3)CC[C@]3(C)C(=CC[C@@H]4[C@@]5(C)CC=C(c6ccc(C(=O)O)cc6)C(C)(C)[C@@H]5CC[C@]43C)[C@H]12` [Example A2, 4-((4aR,6aR,6bS,8aS,11R,12S,12aS,14aR,14bS)-8a-((3-(1,1-dioxido-4-thiomorpholinyl)propyl)carbamoyl)-4,4,6a,6b,11,12,14b-heptamethyl-1,4,4a,5,6,6a,6b,7,8,8a,9,10,11,12,12a,14,14a,14b-octadecahydro-3-picenyl)benzoic acid]: under 100 nM. With `C=C(C)[C@@H]1CC[C@]2(C(=O)N3CCN(CCO)CC3)CC[C@]3(C)[C@H](CC[C@@H]4[C@@]5(C)CC=C(c6ccc(C(=O)O)cc6)C(C)(C)[C@@H]5CC[C@]43C)[C@@H]12` [Example 13, 4-((1R,3aS,5aR,5bR,7aR,11aS,11bR,13aR,13bR)-3a-(4-(2-hydroxyethyl)piperazine-1-carbonyl)-5a,5b,8,8,11a-pentamethyl-1-(prop-1-en-2-yl)-2,3,3a,4,5,5a,5b,6,7,7a,8,11,11a,11b,12,13,13a,13b-octadecahydro-1H-cyclopenta[a]chrysen-9-yl)benzoic acid, TFA], the EC50 is under 100 nM. Next, `C=C(C)[C@@H]1CC[C@]2(C(=O)NCC(O)C(=O)O)CC[C@]3(C)[C@H](CC[C@@H]4[C@@]5(C)CC=C(c6ccc(C(=O)O)cc6)C(C)(C)[C@@H]5CC[C@]43C)[C@@H]12` (stereo partly drawn) [Example 79, 4-((1R,3aS,5aR,5bR,7aR,11aS,11bR,13aR,13bR)-3a-(2-carboxy-2-hydroxyethylcarbamoyl)-5a,5b,8,8,11a-pentamethyl-1-(prop-1-en-2-yl)-2,3,3a,4,5,5a,5b,6,7,7a,8,11,11a,11b,12,13,13a,13b-octadecahydro-1H-cyclopenta[a]chrysen-9-yl)benzoic acid]: under 100 nM; `C=C(C)[C@@H]1CC[C@]2(C(=O)NCCN3CCN(C(=O)OC(C)(C)C)CC3)CC[C@]3(C)[C@H](CC[C@@H]4[C@@]5(C)CC=C(c6ccc(C(=O)O)cc6)C(C)(C)[C@@H]5CC[C@]43C)[C@@H]12` [Example 37, 4-((1R,3aS,5aR,5bR,7aR,11aS,11bR,13aR,13bR)-3a-(2-(4-(tert-butoxycarbonyl)piperazin-1-yl)ethylcarbamoyl)-5a,5b,8,8,11a-pentamethyl-1-(prop-1-en-2-yl)-2,3,3a,4,5,5a,5b,6,7,7a,8,11,11a,11b,12,13,13a,13b-octadecahydro-1H-cyclopenta[a]chrysen-9-yl)benzoic acid]: under 100 nM; `C=C(C)[C@@H]1CC[C@]2(C(=O)NCCCNC(C)=O)CC[C@]3(C)[C@H](CC[C@@H]4[C@@]5(C)CC=C(c6ccc(C(=O)O)cc6)C(C)(C)[C@@H]5CC[C@]43C)[C@@H]12` [Example 53, 4-((1R,3aS,5aR,5bR,7aR,11aS,11bR,13aR,13bR)-3a-(3-acetamidopropylcarbamoyl)-5a,5b,8,8,11a-pentamethyl-1-(prop-1-en-2-yl)-2,3,3a,4,5,5a,5b,6,7,7a,8,11,11a,11b,12,13,13a,13b-octadecahydro-1H-cyclopenta[a]chrysen-9-yl)benzoic acid]: under 100 nM. Next, `C=C(C)[C@@H]1CC[C@]2(C(=O)NCc3cccnc3)CC[C@]3(C)[C@H](CC[C@@H]4[C@@]5(C)CC=C(c6ccc(C(=O)O)cc6)C(C)(C)[C@@H]5CC[C@]43C)[C@@H]12` [Example 29, 4-((1R,3aS,5aR,5bR,7aR,11aS,11bR,13aR,13bR)-5a,5b,8,8,11a-pentamethyl-1-(prop-1-en-2-yl)-3a-(pyridin-3-ylmethylcarbamoyl)-2,3,3a,4,5,5a,5b,6,7,7a,8,11,11a,11b,12,13,13a,13b-octadecahydro-1H-cyclopenta[a]chrysen-9-yl)benzoic acid]: under 100 nM; `C=C(C)[C@@H]1CC[C@]2(C(=O)N(CCO)CCN(C)C)CC[C@]3(C)[C@H](CC[C@@H]4[C@@]5(C)CC=C(c6ccc(C(=O)O)cc6)C(C)(C)[C@@H]5CC[C@]43C)[C@@H]12` [Example 77, 4-((1R,3aS,5aR,5bR,7aR,11aS,11bR,13aR,13bR)-3a-((2-(dimethylamino)ethyl)(2-hydroxyethyl)carbamoyl)-5a,5b,8,8,11a-pentamethyl-1-(prop-1-en-2-yl)-2,3,3a,4,5,5a,5b,6,7,7a,8,11,11a,11b,12,13,13a,13b-octadecahydro-1H-cyclopenta[a]chrysen-9-yl)benzoic acid]: over 100 nM; `C=C(C)[C@@H]1CC[C@]2(C(=O)N3CCC(O)CC3)CC[C@]3(C)[C@H](CC[C@@H]4[C@@]5(C)CC=C(c6ccc(C(=O)O)cc6)C(C)(C)[C@@H]5CC[C@]43C)[C@@H]12` [Example 22, 4-((1R,3aS,5aR,5bR,7aR,11aS,11bR,13aR,13bR)-3a-(4-hydroxypiperidine-1-carbonyl)-5a,5b,8,8,11a-pentamethyl-1-(prop-1-en-2-yl)-2,3,3a,4,5,5a,5b,6,7,7a,8,11,11a,11b,12,13,13a,13b-octadecahydro-1H-cyclopenta[a]chrysen-9-yl)benzoic acid]: under 100 nM. Next, `C=C(C)[C@@H]1CC[C@]2(C(=O)NCCN3CCS(=O)(=O)CC3)CC[C@]3(C)[C@H](CC[C@@H]4[C@@]5(C)CC=C(c6cc(F)c(C(=O)O)c(F)c6)C(C)(C)[C@@H]5CC[C@]43C)[C@@H]12` [Example 121, 4-((1R,3aS,5aR,5bR,7aR,11aS,11bR,13aR,13bR)-3a-((2-(1,1-dioxido-4-thiomorpholinyl)ethyl)carbamoyl)-1-isopropenyl-5a,5b,8,8,11a-pentamethyl-2,3,3a,4,5,5a,5b,6,7,7a,8,11,11a,11b,12,13,13a,13b-octadecahydro-1H-cyclopenta[a]chrysen-9-yl)-2,6-difluorobenzoic acid]: under 100 nM; `C=C(C)[C@@H]1CC[C@]2(C(=O)NCCCN(C)C(C)=O)CC[C@]3(C)[C@H](CC[C@@H]4[C@@]5(C)CC=C(c6ccc(C(=O)O)cc6)C(C)(C)[C@@H]5CC[C@]43C)[C@@H]12` [Example 52, 4-((1R,3aS,5aR,5bR,7aR,11aS,11bR,13aR,13bR)-5a,5b,8,8,11a-pentamethyl-3a-(3-(N-methylacetamido)propylcarbamoyl)-1-(prop-1-en-2-yl)-2,3,3a,4,5,5a,5b,6,7,7a,8,11,11a,11b,12,13,13a,13b-octadecahydro-1H-cyclopenta[a]chrysen-9-yl)benzoic acid]: under 100 nM; `C=C(C)[C@@H]1CC[C@]2(C(=O)NCc3ncc[nH]3)CC[C@]3(C)[C@H](CC[C@@H]4[C@@]5(C)CC=C(c6ccc(C(=O)O)cc6)C(C)(C)[C@@H]5CC[C@]43C)[C@@H]12` [Example 43]: under 100 nM. Take `C=C(C)[C@@H]1CC[C@]2(C(=O)NCCN(CCC(=O)O)C(C)C)CC[C@]3(C)[C@H](CC[C@@H]4[C@@]5(C)CC=C(c6ccc(C(=O)O)cc6)C(C)(C)[C@@H]5CC[C@]43C)[C@@H]12` [Example 96, 4-((1R,3aS,5aR,5bR,7aR,11aS,11bR,13aR,13bR)-3a-(2-((2-carboxyethyl)(isopropyl)amino)ethylcarbamoyl)-5a,5b,8,8,11a-pentamethyl-1-(prop-1-en-2-yl)-2,3,3a,4,5,5a,5b,6,7,7a,8,11,11a,11b,12,13,13a,13b-octadecahydro-1H-cyclopenta[a]chrysen-9-yl)benzoic acid]: the EC50 is under 100 nM.

In the case of `C=C(C)[C@@H]1CC[C@]2(C(=O)NCc3nccs3)CC[C@]3(C)[C@H](CC[C@@H]4[C@@]5(C)CC=C(c6ccc(C(=O)O)cc6)C(C)(C)[C@@H]5CC[C@]43C)[C@@H]12` [Example 41, 4-((1R,3aS,5aR,5bR,7aR,11aS,11bR,13aR,13bR)-5a,5b,8,8,11a-pentamethyl-1-(prop-1-en-2-yl)-3a-(thiazol-2-ylmethylcarbamoyl)-2,3,3a,4,5,5a,5b,6,7,7a,8,11,11a,11b,12,13,13a,13b-octadecahydro-1H-cyclopenta[a]chrysen-9-yl)benzoic acid], the EC50 is under 100 nM.
